Reference: patent publication US20260000710A1, “Novel Treatments for Cardiovascular Related Disease” (priority 2022, published 2026)

B1: APOB peptide 14 (…) (peptide)
peptide: GKIDFLNNYALFLSP
B2: APOB peptide 18 (…) (peptide)
peptide: KFTYLINYIQDEINT
B3: APOB peptide 19 (…) (peptide)
peptide: QIHQYIMALREEYFD
B4: APOB peptide 13 (…) (peptide)
peptide: SLFFSAQPFEITAST
B5: APOB peptide 17 (…) (peptide)
peptide: ILFSYFQDLVITLPF
B6: APOB peptide 6 (…) (peptide)
peptide: IKHIYAISSAALSAS
B7: APOB peptide 1 (…) (peptide)
peptide: DKRLAAYLMLMRSPS
B8: APOB peptide 4 (…) (peptide)
peptide: VEFVTNMGIIIPDFA
B9: APOB peptide 20 (…) (peptide)
peptide: KIVSLIKNLLVALKD
B10: APOB peptide 11 (…) (peptide)
peptide: LIINWLQEALSSASL
B11: APOB peptide 16 (…) (peptide)
peptide: YKKLRTSSFALNLPT
B12: APOB peptide 10 (…) (peptide)
peptide: HVKHFVINLIGDFEV
B13: APOB peptide 12 (…) (peptide)
peptide: LEVLNFDFQANAQLS
B14: APOB peptide 2 (…) (peptide)
peptide: TLTAFGFASADLIEI
B15: APOB peptide 3 (…) (peptide)
peptide: FLHYIFMENAFELPT
B16: APOB peptide 7 (…) (peptide)
peptide: HFSNVFRSVMAPFTM
B17: APOB peptide 5 (…) (peptide)
peptide: VGSKLIVAMSSWLQK
B18: APOB peptide 9 (…) (peptide)
peptide: LSQLQTYMIQFDQYI
B19: APOB peptide 8 (…) (peptide)
peptide: QLYSKFLLKAEPLAF

system: purified MHC molecules (28 common HLA DP, DQ and DR alleles); experiment: HLA class II competition binding assay (inhibition of radiolabeled ligand binding); set-up: species or system human; conditions: alleles bound at <1000 nM threshold
Method: Peptides predicted to bind most (≥75%) of the alleles, were experimentally verified in HLA-II binding assays^31. For each peptide, the number of alleles that bound at a <1000 nM threshold level was tabulated. Top 20 promiscuous binders (bind >50% of reference alleles) were selected for further study (FIG. 9A, Table 2).
Next, the capacity of these peptides to bind 28 common HLA alleles (27 from the reference set plus DPB1*03:01) was determined experimentally using classical competition assays based on the inhibition of binding of high affinity radiolabeled ligands to purified MHC molecules^3. Under the conditions utilized, where [radiolabeled peptide] is <[MHC], and [MHC]<[inhibitor peptide], the measured IC50 values, defined as the concentrations of inhibitor peptide that inhibits the binding of the radiolabeled ligand by 50%, are reasonable estimates of true Kd values.

| No. of HLA-II alleles bound | Molecule |
| --- | --- |
| 23 | DKRLAAYLMLMRSPS [Peptide 1] |
| 24 | FLHYIFMENAFELPT [Peptide 3] |
| 23 | GKIDFLNNYALFLSP [Peptide 14] |
| 22 | HFSNVFRSVMAPFTM [Peptide 7] |
| 21 | HVKHFVINLIGDFEV [Peptide 10] |
| 20 | IKHIYAISSAALSAS [Peptide 6] |
| 17 | ILFSYFQDLVITLPF [Peptide 17] |
| 19 | KFTYLINYIQDEINT [Peptide 18] |
| 20 | KIVSLIKNLLVALKD [Peptide 20] |
| 18 | LEVLNFDFQANAQLS [Peptide 12] |
| 17 | LIINWLQEALSSASL [Peptide 11] |
| 17 | LSQLQTYMIQFDQYI [Peptide 9] |
| 25 | QIHQYIMALREEYFD [Peptide 19] |
| 27 | QLYSKFLLKAEPLAF [Peptide 8] |
| 23 | RGLKLATALSLSNKF [Peptide 15] |
| 23 | SLFFSAQPFEITAST [Peptide 13] |
| 21 | TLTAFGFASADLIEI [Peptide 2] |
| 18 | VEFVTNMGIIIPDFA [Peptide 4] |
| 21 | VGSKLIVAMSSWLQK [Peptide 5] |
| 21 | YKKLRTSSFALNLPT [Peptide 16] |

molecular target: 28 common HLA alleles (27 from the reference set plus DPB1*03:01), purified MHC molecules; experiment: competition assay, inhibition of radiolabeled ligand binding to purified HLA class II; bound = IC50 <1000 nM; conditions: not given

| No. of HLA-II alleles bound [alleles] | Molecule |
| --- | --- |
| 23 | B1 |
| 19 | B2 |
| 25 | B3 |
| 23 | B4 |
| 17 | B5 |
| 20 | B6 |
| 23 | B7 |
| 18 | B8 |
| 20 | B9 |
| 17 | B10 |
| 21 | B11 |
| 21 | B12 |
| 18 | B13 |
| 21 | B14 |
| 24 | B15 |
| 22 | B16 |
| 21 | B17 |
| 17 | B18 |
| 27 | B19 |

system: PBMCs; experiment: IFNγ ELISpot after 14-day in vitro expansion and re-stimulation; assay type: cell-based, human; conditions: donor 1, HLA-DR alleles with strong binding affinities for the peptide
Method: To do this, the inventors used the optimized IFNγ ELISpot assay (FIG. 1A) because Th1 cytokine response to APOB peptides is most robust (FIG. 9D) and easily detectable in high-throughput screens. PBMCs from HLA-typed donors (demographics and HLA-II alleles in Tables 5, 6) were incubated with the APOB20 pool for 14 days with intermittent IL-2 feeding (schematic in FIG. 11A). […] Restimulation with the APOB20 pool and with PHA-L served as positive controls, and unstimulated cells were negative controls. For each donor, APOB peptide-specific restimulation conditions were run in triplicate wells and the average number of spot-forming cells (SFCs) per 10^6 PBMCs was calculated. To determine responder frequencies, a positive response was defined based on established criteria set for detection of responses to other autoantigenic epitopes^4. (1) ≥100 spot-forming cells per 10^6 PBMCs; (2) stimulation index ≥2 (3) p≤0.01 by Student's t-test, mean response in stimulated vs unstimulated replicate wells.
Expansion of antigen-specific T cells and Enzyme-linked immunospot (ELISpot) assay. For in vitro expansion, PBMCs were plated at a density of 2×10^6 cells/ml in 24-well plates and were cultured in the presence of APOB20 and CEFX-II peptide pools. […] Wells were imaged and spot-forming cells (SFCs) were quantified using the Zeiss KS or AID (Autoimmun Diagnostika) ELISpot readers. […]

| Molecule | response with pan-HLA-DR blocking antibody |
| --- | --- |
| TLTAFGFASADLIEI [Peptide 2] | inhibited responses |

same assay, conditions: donor 2, DQ and DP binder alleles and DR non-binder alleles

| Molecule | immunogenicity under HLA-DR blockade |
| --- | --- |
| TLTAFGFASADLIEI [Peptide 2] | remained unaffected |
